Biological target: PD-L1 His protein / PD-1 Fc protein (Homo sapiens, UniProt Q9NZQ7)
Assay: HTRF Assay (PD-1/PD-L1 interaction)
Type: binding
Details: PD-L1 His 6 nM, PD-1 Fc 6 nM
Outline: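 HTRF: PD-L1 His (6 nM final), compound (3-fold dilutions, 20 μM to 0.001 μM final) and PD-1 Fc (6 nM final) preincubated 15 min at room temperature. Anti-human IgG-XL665 and anti-6HIS Tb cryptate (mixed at 6.7 nM and 0.35 nM) then added for 1 h at room temperature before reading.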

Sequence of PD-L1 His protein / PD-1 Fc protein (Q9NZQ7 19-238 limits assumed): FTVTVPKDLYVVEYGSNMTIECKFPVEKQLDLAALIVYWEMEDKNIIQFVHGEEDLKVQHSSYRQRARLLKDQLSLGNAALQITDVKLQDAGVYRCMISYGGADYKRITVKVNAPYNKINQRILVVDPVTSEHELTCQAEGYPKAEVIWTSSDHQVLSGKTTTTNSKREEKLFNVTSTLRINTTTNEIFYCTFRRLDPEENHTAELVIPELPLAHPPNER

SMILES | IC50 [nM]
COc1nc(-c2cccc(-c3cccc(-c4ccn5c(=O)c(CN6C[C@H](O)C[C@@H]6C(=O)O)cnc5c4)c3Cl)c2Cl)ccc1CNC[C@@H]1CCC(=O)N1 [Example 134, (2R,4R)-1-((8-(2,2′-Dichloro-3′-(6-methoxy-5-(((((S)-5-oxopyrrolidin-2-yl)methyl)amino)methyl)pyridin-2-yl)-[1,1′-biphenyl]-3-yl)-4-oxo-4H-pyrido[1,2-a]pyrimidin-3-yl)methyl)-4-hydroxypyrrolidine-2-carboxylic acid] | 1.1
COc1nc(-c2cccc(-c3cccc(-c4ccn5c(=O)c(CN6CC(CO)C6)cnc5c4)c3Cl)c2Cl)ccc1CN1CC[C@H](C(=O)O)C1 [Example 135, (S)-1-((6-(2,2′-Dichloro-3′-(3-((3-(hydroxymethyl)azetidin-1-yl)methyl)-4-oxo-4H-pyrido[1,2-a]pyrimidin-8-yl)-[1,1′-biphenyl]-3-yl)-2-methoxypyridin-3-yl)methyl)pyrrolidine-3-carboxylic acid] | 0.2
COc1nc(-c2cccc(-c3cccc(-c4ccn5c(=O)c(CN6CC(CO)C6)cnc5c4)c3Cl)c2Cl)ccc1CN1CC(C(=O)O)C1 [Example 136, 1-((6-(2,2′-Dichloro-3′-(3-((3-(hydroxymethyl)azetidin-1-yl)methyl)-4-oxo-4H-pyrido[1,2-a]pyrimidin-8-yl)-[1,1′-biphenyl]-3-yl)-2-methoxypyridin-3-yl)methyl)azetidine-3-carboxylic acid] | 0.2
COC(=O)CCCNCc1cnc2cc(-c3cccc(-c4cccc(-c5ccc(CNC[C@@H]6CCC(=O)N6)c(OC)n5)c4Cl)c3Cl)ccn2c1=O [Example 137, Methyl (S)-4-(((8-(2,2′-dichloro-3′-(6-methoxy-5-((((5-oxopyrrolidin-2-yl)methyl)amino)methyl)pyridin-2-yl)-[1,1′-biphenyl]-3-yl)-4-oxo-4H-pyrido[1,2-a]pyrimidin-3-yl)methyl)amino)butanoate] | 1.7
COc1ccc(CNCc2cnc3cc(-c4cccc(-c5cccc(-c6ccc(CNC[C@@H]7CCC(=O)N7)c(OC)n6)c5Cl)c4Cl)ccn3c2=O)c(OC)c1 [Example 138, (S)-8-(2,2′-Dichloro-3′-(6-methoxy-5-((((5-oxopyrrolidin-2-yl)methyl)amino)methyl)pyridin-2-yl)-[1,1′-biphenyl]-3-yl)-3-(((2,4-dimethoxybenzyl)amino)methyl)-4H-pyrido[1,2-a]pyrimidin-4-one] | 1.4
COc1nc(-c2cccc(-c3cccc(-c4ccn5c(=O)c(CNC6(CC(=O)O)CC6)cnc5c4)c3Cl)c2Cl)ccc1CNC[C@@H]1CCC(=O)N1 [Example 139, (S)-2-(1-(((8-(2,2′-Dichloro-3′-(6-methoxy-5-((((5-oxopyrrolidin-2-yl)methyl)amino)methyl)-pyridin-2-yl)-[1,1′-biphenyl]-3-yl)-4-oxo-4H-pyrido[1,2-a]pyrimidin-3-yl)methyl)amino)-cyclopropyl)acetic acid] | 0.4
COc1nc(-c2cccc(-c3cc(F)cc(-c4ccn5c(=O)c(CNC[C@@H]6CCC(=O)N6)cnc5c4)c3Cl)c2Cl)ccc1CNC[C@@H]1CCC(=O)N1 [Example 140, 8-(2,2′-Dichloro-5-fluoro-3′-(6-methoxy-5-(((((S)-5-oxopyrrolidin-2-yl)methyl)amino)methyl)pyridin-2-yl)-[1,1′-biphenyl]-3-yl)-3-(((((S)-5-oxopyrrolidin-2-yl)methyl)amino)methyl)-4H-pyrido[1,2-a]pyrimidin-4-one] | 2
COc1nc(-c2cccc(-c3cc(Cl)cc(-c4ccn5c(=O)c(CNC[C@@H]6CCC(=O)N6)cnc5c4)c3Cl)c2Cl)ccc1CNC[C@@H]1CCC(=O)N1 [Example 141, 3-(((((S)-5-Oxopyrrolidin-2-yl)methyl)amino)methyl)-8-(2,2′,5-trichloro-3′-(6-methoxy-5-(((((S)-5-oxopyrrolidin-2-yl)methyl)amino)methyl)pyridin-2-yl)-[1,1′-biphenyl]-3-yl)-4H-pyrido[1,2-a]pyrimidin-4-one] | 5.8

Reference: patent US20230143612A1 (Arbutus Biopharma Corporation, priority 2020, published 2023)
